Experimental data taken from patent US8637087B2, “Treatment of interstitial cystitis using (6aR, 10aR)-Δ8-tetrahydrocannabinol-11-OIC acids” (JB Therapeutics Inc., priority 2004, dated 2014).

Assays:
[1] = system: bladder overactivity induced by intravesical administration of acetic acid solution; assay: Cystometrograms, acute bladder irritation by acetic acid infusion, i.v. drug; format: in vivo, rats; conditions: for intercontraction interval (ICI), % of the control value: 0.25% acetic acid infusion, vehicle 42.9%; for pressure threshold (PT), % of the control value: vehicle 87.1%
Protocol: (§1) Cystometrograms (CMGs) were performed under urethane anesthesia (1 g/kg s.c.) using a catheter inserted into the bladder through the bladder dome via a midline abdominal incision. Saline was infused at a rate of 0.04 ml/min to elicit repetitive bladder contractions. Effects of intravenous (i.v.) injection of Compound 3a on bladder overactivity induced by either intravesical administration of acetic acid solution or one day treatment with cyclophosphamide were investigated. […] Thus, these compounds can be effective for the treatment of pain and urinary frequency symptoms in patients with painful bladder syndrome/interstitial cystitis.
Saline infusion was performed for 1 to 2 hours prior to drug (or vehicle) administration and control CMGs were recorded. Compound 3a (aka CT-3 or IP-751, dissolved in 30% Cremophor EL saline solution; three concentrations of 1, 3, and 10 mg/kg) or vehicle was administrated intravenously when starting infusion of acetic acid solution (0.25%) into the bladder.
Changes in cystometric parameters such as intercontraction intervals (ICIs), maximum voiding pressure (MVP), pressure threshold (PT) and baseline pressure (BP) were evaluated before and after i.v. administration of Compound 3a or vehicle.
In the vehicle group, 0.25% acetic acid infusion induced significant bladder overactivity, as evidenced by a reduction in ICIs to 42.9% of the control value.

[2] = system: cyclophosphamide-induced bladder overactivity; assay: Cystometrograms, subacute bladder irritation by cyclophosphamide, i.v. drug; format: in vivo, rats
Protocol: as §1
One day after intraperitoneal injection of cyclophosphamide (CYP, 150 mg/kg), control CMGs were recorded for 1 to 2 hour prior to i.v. administration of Compound 3a or vehicle. See, example i, above. Following administration of Compound 3a, changes in cystometric parameters such as ICIs, MVP, PT and BP were recorded to evaluate the effects of Compound 3a on cyclophosphamide-induced bladder overactivity.
Bladder overactivity indicated by significant ICI reductions was observed one day after CYP injection.

[3] = system: bladder hyperactivity induced by infusing acetic acid; assay: Instillation of liposomal drug 24 h / 48 h before acetic acid-induced bladder hyperactivity (CMG); format: in vivo, rats; conditions: intravesical, two subjects per group
Protocol: Similarly, instillation of liposomal-Compound 3a was first conducted. Then, 24 hours and 48 hours after instillation, under urethane anesthesia, bladder hyperactivity was induced by infusing acetic acid at the concentration of 0.125% and 025%. Prior to acetic acid infusion, baseline CMG was conducted by saline infusion (0.04 ml/min) to measure intercontraction interval (ICI). A percentage reduction in ICI was measured following acetic acid infusion as an indicator of bladder irritation.
(§2) See, FIGS. 9B and 9C, respectively. Each group consisted of a minimum of seven subjects, except for those of a preliminary dose response study, where two subjects were used in each group. The preliminary dose response study indicated an optimal Compound 3a dose of 0.8 mg/ml. See, FIG. 9A. In these experiments, 1.6 mg/ml was highest concentration of Compound 3a encapsulated into liposomes; higher concentrations apparently compromised formulation stability.

[4] = Encapsulation into liposomes / formulation stability; format: physicochemical
Protocol: as §2

[5] = 10 mg/kg, worded as 'expected to increase'
[6] = CYP-treated rats, after administration

Structure (SMILES) | intercontraction interval (ICI), % of the control value ([1]; 1 mg/kg i.v.) | pressure threshold (PT), % of the control value ([1]; 1 mg/kg i.v.) | intercontraction interval (ICI), % of the control value ([1]; 3 mg/kg i.v.) | pressure threshold (PT), % of the control value ([1]; 3 mg/kg i.v.) | intercontraction interval (ICI), % of the control value ([1]; 10 mg/kg i.v., P<0.05, n=6) | acetic acid-induced bladder overactivity ([1]; 10 mg/kg i.v., without affecting bladder contractions during voiding) | pressure threshold (PT), % of the control value [1, 5] | baseline pressure (BP), change ([1]; i.v., acetic acid infusion) | maximum voiding pressure (MVP), change ([1]; i.v., acetic acid infusion) | CYP-induced bladder overactivity ([2]; 10 mg/kg i.v., CYP-treated rats) | intercontraction interval (ICI) after drug ([2]; 10 mg/kg i.v., one day after CYP 150 mg/kg i.p., control value 3.65 min, vehicle 3.89 vs. 3.94 min) [min] | baseline pressure (BP), change [2, 6] | maximum voiding pressure (MVP), change [2, 6] | pressure threshold (PT), change [2, 6] | optimal dose in preliminary dose response study [3] [mg/mL] | highest concentration encapsulated into liposomes (higher concentrations compromised formulation stability) [4] [mg/mL]
CCCCCCC(C)(C)c1cc(O)c2c(c1)OC(C)(C)[C@@H]1CC=C(C(=O)O)CC21 (stereo partly drawn) [Compound 3a, (6aR,10aR)-Δ^8-THC-DMH-11-oic Acid] | 45.2 % of the control value | 74.1 % of the control value | 51.1 % of the control value | 94.1 % of the control value | 112.4 % of the control value | significantly suppressed | 127.2 % of the control value | No significant changes | No significant changes | significantly suppressed | 5.14 | No significant changes | No significant changes | No significant changes | 0.8 | 1.6
CCCCCCC(C)(C)c1cc(OC(C)=O)c2c(c1)OC(C)(C)[C@@H]1CC=C(C(=O)O)C[C@@H]21 [Compound 3c, (6aR,10aR)-Δ^8-THC-DMH-11-oic Acid Acetate] | – | – | – | – | – | – | 127.2 % of the control value | – | – | – | – | – | – | – | – | –
